We go through six molecules from article PMC8719441, “Tonoplast-Localized Theanine Transporter CsCAT2 May Mediate Theanine Storage in the Root of Tea Plants (Camellia sinensis L.)” (Frontiers in Plant Science, 2021).

B1: CsCAT2 (Camellia sinensis) (protein)
chain: MGFRCDSQNDGGACPWTCGFKGLIRRKQVDSIHAKSSGSGHHQLAKELSVFHLIAIGVGSTIGAGVYILVGTVAREHSGPALTFSFLIAGIAAALSAFCYAELASRCPSAGSAYHYSYICVGEGVAWLIGWALILEYTIGGSAVARGISPNLALLFGGADSLPFFLARQHLPGLDIVVDPCAALLVIVVTGLLCVGIKESTLVQSIVTTANVCAMLFVIIAGGYLGFKSGWVGYELPVGYFPFGVDGMLAGAATVFFAYIGFDSVASTAEEVKNPQRDLPLGIAAALSICCMLYMLVSVVIVGLVPYYAMDPDTPISSAFASHGMQWAAYIITAGATTALCSTLMGSMLPQPRILMAMSRDGLLPSIFSDVNKRTQVPIKSTVITGVVAAILAFIMDVEQLAGMVSVGTLLAFTMVAISVLILRYVPPDEVPIPSSLQESIDSVSLRYSTSNDNIEEEKPKDHIGSSTQSTRLLLGKVDRPIAYPLIPKQAATILNDNRRKIAGWTIMFTCVGVLLLTSAASSVGLLPSYFRFGVCGIGVVLILSGLVVLTCIDQDDARHSFGHTGGFICPFVPLLPIACVLINVYLLINLGSATWTRVSIWLLIGVLVYAFYGRTHSSLKDAVYVPATHVEEIYRSSENSLP
notes: no tag mentioned

The first data set addresses T1, CsCAT2 (Camellia sinensis, UniProt A0A2R3U877).
T1 construct: gene CAT2; no tag mentioned
In words: competition with theanine uptake in yeast […]Δ[…]α-CsCAT2, HPLC-UV; growth on sole nitrogen source. Type of data set: cell-based. The conditions noted are these: 200 μM theanine, 10 min.
Regarding `CC(C)[C@H](N)C(=O)O` [valine], the “% theanine uptake at 2 mM competitor” value is recorded as “CsCAT2's capacity to transport theanine was significantly suppressed by these amino acids”.
Same read-out and setting: the same measure for `N[C@@H](CCC(=O)O)C(=O)O` [glutamate]: “CsCAT2's capacity to transport theanine was significantly suppressed by these amino acids”; for `C[C@H](N)C(=O)O` [alanine]: “CsCAT2's capacity to transport theanine was significantly suppressed by these amino acids”; for `N[C@@H](CC(=O)O)C(=O)O` [aspartic acid]: “CsCAT2's capacity to transport theanine was significantly suppressed by these amino acids”.
The same measure, in the same setting: the same measure for `NC(=O)CC[C@H](N)C(=O)O` [glutamine]: “CsCAT2's capacity to transport theanine was significantly suppressed by these amino acids”.

Substrate in another data set: CCNC(=O)CC[C@H](N)C(=O)O
In words: cells, lysate or membranes. The format is cell-based, Camellia sinensis. Particulars: 0.09375-8 mM theanine, 0-20 min, after 2 h nitrogen starvation; H+-coupled.
For the molecule B1, the Km came out at 450 µM.
